A short description of data set [1]: CCK8 cytotoxicity assay, Lo2. The format is cell-based, human. The conditions noted are these: human, Lo2 human hepatic cells (normal tissue cell line), CCK8, 48 h. The source says: (§1) The growth inhibitory effects of the isolated farnesyl phenolic compounds (1–8) against carcinoma cell lines [human osteosarcoma cells (U2OS), human colorectal carcinoma cells (SW620), human ES-2 ovarian carcinoma cells (ES-2)] and normal tissue cell lines [human hepatic cells (Lo2), African green monkey kidney vero cells (Vero)] were further investigated using CCK8 assay method (Table 3).
(§2) Carcinoma cell lines [human osteosarcoma cells (U2OS), human colorectal carcinoma cells (SW620), human ES-2 ovarian carcinoma cells (ES-2)] and normal tissue cell lines [human hepatic cells (Lo2), African green monkey kidney Vero cells (Vero)] The U2OS, SW620, ES-2, Lo2 and Vero were obtained from ATCC (Manassas, VA, USA). The SW620 and Vero cells were cultured in Roswell Park Memorial Institute medium (RPMI), with 10% fetal bovine serum (Hyclone) and 1% penicillin-streptomycin (Sigma). Lo2, U2OS and ES-2 cells were grown in Dulbecco's modified eagle medium (DMEM), with 10% fetal bovine serum (Hyclone) and 1% penicillin-streptomycin (Sigma). All of these cells were cultured at 37°C in a humidified atmosphere with 5% CO2. For CCK8 assay cytotoxicity evaluation of compounds, all cells were separately plated at a density of 1 × 10^4 cells/well in a 96 well plate. Cells were cultivated at 37°C in 5% CO2 atmosphere for 24 h, then medium in the wells was replaced with fresh medium containing compounds which were diluted in 8 dilution steps covering the range from 200 μM to 1.5625 μM. And DMSO was used as negative control. After 48 h incubation, 10 μL of CCK8 solution was added to each well. After 30 min, the optical density (OD) of each well was measured at wavelength of 450 nm on spectrophotometer. Data were corrected for background (no-cell control) and expressed as a percentage of the value for untreated cells. The IC50 values of the isolated compounds were derived from the mean OD values of the triplicate tests versus the drug concentration curves.
(In general: Formazan colour is commonly taken as a measure of viable cells.)

Data set [2] in a line: CCK8 cytotoxicity assay, Vero. In kind it is cell-based, African green monkey. The conditions noted are these: African green monkey, Vero kidney cells (normal tissue cell line), CCK8, 48 h.
Excerpt: as §1, §2

The next data set relates to SW620 cells. Put plainly: EdU cell proliferation assay. The format is cell-based, human. The conditions noted are these: 50 μM or 150 μM vs control, P<0.001. Here is the method:
EdU cell proliferation assays were carried out to detect the effects of compounds on DNA replication. EdU (5-Ethynyl-2- deoxyuridine), a thymidine analog, can penetrate into the replicating DNA molecule. Based on the specific response of EdU and fluorescent dyes, DNA replication activity could be detected.
SW620 cells were pretreated with 0, 50, 150 μM of compound 1, respectively. Dissociated cells were handled with EdU cell proliferation kit (RiboBio) according to the manuscript by according to the manufacturer's instructions. Then the morphology was observed by fluorescence microscopy (Zeiss, OBSERVER D1/AX10 cam HRC).

The test system of another data set is SW620 cells (53BP1 foci). Put plainly: 53BP1 foci immunofluorescence. The format is cell-based, human. The conditions noted are these: 50 μM, 24 h vs control, P<0.01. Here is the method:
Meanwhile, MTH1 could prevent the mispairing of bases during replication and transversion mutations. Presumably, its inhibitors could cause DNA damage. P53 binding protein 1 (p53-binding, protein 1, 53BP1) is an important regulatory factor in response to double strand breaks.
Cells which adhered to glass coverslips were treated with DMSO or compounds (50 μM) for 24 h. Then cells were washed with PBS and then fixed with 3% paraformaldehyde in PBS for 20 min […]. Fixed cells were rinsed with PBS and incubated with penetrating agent (0.5% Triton-X-100) in PBS for 5 min. Next, cells were stained with an anti-53BP1 monoclonal antibody (abcam, diluted 1:250). Then the coverslips were rinsed with PBS at least 3 times andincubated with an Alexa Fluor 568 goat anti-rabbit IgG secondary antibody. After PBS rinsing, coverslips were stained with DAPI (sigma). Then the morphology was observed by confocal microscopy (Zeiss, OBSERVER D1/AX10 cam HRC).

In another data set the target is T1, MTH1 in SW620 cells (Homo sapiens, UniProt P36639).
T1 construct: endogenous in cells; host or cells: SW620
Put plainly: Cellular thermal shift assay (CETSA). The conditions noted are these: 30 μM, 12 hours, 44-54°C, vs DMSO, Western blot. The format is cell-based. On the procedure:
The cellular thermal shift assay (CETSA) was recently developed to further confirm the interaction between the target and the compound in vitro by Western blot assay. CETSA was applied based on the principles that the ligand binding gave rise to the thermal stabilization of target proteins. The thermal stability of MTH1 in SW620 cells was tested at the temperature range of 44-54°C after the pretreatment of compound 1 for 12 hours (Figure 6E and 6F). Correspondingly, the control cells were treated with DMSO. […] Compared with the control group, the thermal stability of MTH1 protein in compound 1 pretreated cells was better under the same temperature condition.
CETSA was developed as a method to directly detect the binding capacity of compounds with targets at the cellular level, based on the principle of ligand-induced target protein stabilization. […] Subsequently, cells were analysed by Western blot assay.
The harvested cells were lysed with liquid nitrogen and the freeze-thaw cycles were repeated twice. […] Proteins was quantified by Bradford reagent (Bio-Rad, USA). The same amount of proteins (20-40 μg) were loaded onto 15% SDS-PAGE gels and transferred to polyvinylidene difluoride membranes (PVDF) (Millipore, USA) and analyzed using the MTH1-antibody (Proteintech) at a concentration of 1: 500. […]
On the technique in general: A western blot detects proteins with antibodies after separation by electrophoresis.

These results are taken from PMC5707067, “Farnesyl phenolic enantiomers as natural MTH1 inhibitors from Ganoderma sinense” (Oncotarget, 2017).

By IC50 is commonly meant the concentration at which inhibition is half-maximal.

SMILES strings stand for the structures.

As for `CO[C@]1(c2cc(O)cc(O)c2)C=C(CCCC(CO)CC/C=C(\C)COC(=O)/C=C/c2ccc(O)cc2)C(=O)O1` (stereo partly drawn) [Compound 1, (5R)-3-{9-[(E)-coumaroyl]-4-hydroxymethyl-8-methyl-7-nonene}-5-(3,5-dihydroxyphenyl)-5-methoxy-2(5H)-furanone], the IC50 at 48 h in data set [1] was 150.3 ± 1.09 µM; in data set [2], > 300 µM. For the same molecule, in the data set on SW620 cells, the “percentage of EdU+ cells” value is “significantly deceased”. In addition, the 53BP1 foci formation entry in the data set with SW620 cells (53BP1 foci) is “significantly aggregated”. The “thermal stability of MTH1 protein” value at MTH1 in SW620 cells is recorded as “better”.
